We go through 9 molecules from patent publication US8440717B2, “Hair growth regulating agent” (Kao Corporation, priority 2008, dated 2013).

The test system of this test is porcine hair follicles. Nature of the test: Hair growth suppressing effect by organ culture method using porcine hair follicles. The format is cell-based, pig. Particulars: for activity at 3e-05 % / activity at 0.003 %: 120 h, day 5 after start of culture with sample-containing medium; for activity at 3e-05 %: concentration 0.00003%; for activity at 0.003 %: concentration 0.003%; for activity at 0.01 %: concentration 0.01%. The protocol:
The skin of a pork pig was cut into pieces of appropriate size, and excess fat was removed. For disinfection, the skin pieces were immersed in a Hibitane solution under sterile conditions for 10 to 20 minutes. The thus-disinfected skin pieces were washed several times with D-PBS.
Subsequently, hair follicles were isolated from the thus-treated skin pieces under a stereomicroscope by means of tweezers and a scalpel (FEATHER No. 10), and the hair follicles were placed on William's Medium E (Gibco cat. No. 12551-032) supplemented with penicillin/streptomycin (Gibco cat. No. 15140-122) solution by 10.
The isolated hair follicles were transferred to a 24-well culture plate (one follicle/well) together with the aforementioned culture medium (400 μL), and cultured in an incubator (37° C., 5% CO2) for two days.
Subsequently, compounds synthesized in Example 1 (compounds 2, 6, 7, and 9 to 13) were diluted with the aforementioned culture medium, to thereby prepare sample-containing media. Each of the thus-prepared sample-containing media was used for replacement. Similarly, N,N-dimethylglycine methyl ester (DMG) and 1,8-diaminooctane (1,8-DAO) were diluted with the aforementioned culture medium, to thereby prepare sample-containing media. Each of the thus-prepared sample-containing media was also used for replacement.
The medium for culture of hair follicles was replaced with each of the sample-containing media, and thereafter, replaced with a sample-containing medium every one or two days. At days five or six after the start of culture with the sample-containing medium, the elongation of hair follicles (i.e., elongation of hair) was measured and compared with that of the control in which medium was replaced with only the non-sample-containing medium. The elongation of hair follicles (i.e., elongation of hair) in the control medium was taken as 100%.
The sample concentration of each sample-containing medium was set within a range that the sample is completely dissolved in the medium, and at non-cytotoxic levels which cause no reduction of cell viability with 24-hour addition of the sample to epidermal cells.

Where [1] appears, read: Sus scrofa, read-out: Percent growth of hair follicles (control = 100%).
Setting [2] is: Sus scrofa, 144 h, day 6 after start of culture with sample-containing medium, read-out: Percent growth of hair follicles (control = 100%).

`NCCCCCCCCN` [1,8-DAO, 1,8-diaminooctane, reference compound]: the activity at 0.03 % (Sus scrofa, 144 h, day 6 after start of culture with sample-containing medium, concentration 0.03%, read-out: Percent growth of hair follicles (control = 100%)) was 87.9%.

On to `CCCCCCCCCCCCNC(=O)CN(C)C` [Compound 2, 2-Dimethylamino-N-Dodecyl-Acetamide], for which the activity at 3e-05 % under setting [1] came out at 108%. For `CCNC(=O)CN(C)C` [Compound 6, 2-Dimethylamino-N-Ethyl-Acetamide], the activity at 0.003 % under setting [1] turned out to be 91.6%.

Consider `CCCCCCCCCCCCNC(=O)C[N+](C)(C)C.[Cl-]` [Compound 7, Dodecylcarbamoylmethyltrimethylammonium Chloride], for which the activity at 3e-05 % under setting [1] came to 42.4%. The “suppressive effect on growth of hair follicles (i.e., hair growth), rank among tested compounds” value (comparison across Tables 1 and 2, compound 7 at 0.000030) was “highest suppressive effect”. On to `CN(C)CC(=O)NCCOCCOCCNC(=O)CN(C)C` [Compound 9, 2-Dimethylamino-N-(2-{2-[2-(2-Dimethylamino-Acetylamino)-Ethoxy]-Ethoxy}-Ethyl)-Acetamide], for which the activity at 0.01 % under setting [2] was determined as 62.4%.

Turning to `CN(C)CC(=O)NCCCCCCCCNC(=O)CN(C)C` [Compound 10, 2-Dimethylamino-N-[8-(2-Dimethylamino-Acetylamino)-Octyl]-Acetamide], the activity at 0.01 % under setting [2] stood at 54.7%. On to `CN(C)CC(=O)NCCOCCOCCOCCNC(=O)CN(C)C` [Compound 11, 2-Dimethylamino-N-[2-(2-{2-[2-(2-Dimethylamino-Acetylamino)-Ethoxy]-Ethoxy}-Ethoxy)-Ethyl]-Acetamide], for which, under setting [1], the activity at 0.003 % turned out to be 97%.

Turning to `CN(C)CC(=O)NCCCCCCCCCCCCNC(=O)CN(C)C` [Compound 12, 2-Dimethylamino-N-[12-(2-Dimethylamino-Acetylamino)-Dodecyl]-Acetamide], the activity at 0.003 % under setting [1] worked out at 48.7%. With `CN(C)CC(=O)NCCCCNC(=O)CN(C)C` [Compound 13, 2-Dimethylamino-N-[4-(2-Dimethylamino-Acetamino)-Butyl]-Acetamide], under setting [1], the activity at 0.003 % is 79.1%.
